tested on: HT29 human colorectal adenocarcinoma cell line; test: cell proliferation assay (Cell Titer-Glo luminescent cell viability assay); format: cell-based; conditions: HT-29, cell proliferative assay, HT29 cells, 72 hr treatment, values given as ranges, read-out: pIC50 (converted)
Method: The cell culture and proliferation assay may be carried out as follows: the HT29 human colorectal adenocarcinoma cell line (ATCC, USA) was maintained in Dulbecco's Modified Eagle's Medium (Invitrogen, USA) supplemented with 10% fetal bovine serum (JRH, USA). The cell proliferation assay was carried out with the Cell Titer-Glo luminescent cell viability assay (Promega, USA) according to the manufacture's instruction after the 72 hr treatment of the cells in the presence of the compounds. The cell viability was shown as a percentage of DMSO treated cells.

IC50 | Compound
> 10 nM | COc1cc(C(=O)N[C@H]2CCNC2)ccc1Nc1ncc2c(n1)N(C1CCCC1)CCC(=O)N2C [Compound 40, (S)-4-(9-cyclopentyl-5-methyl-6-oxo-6,7,8,9-tetrahydro-5H-pyrimido[4,5-b][1,4]diazepin-2-ylamino)-3-methoxy-N-(pyrrolidin-3yl)benzamide]
> 10 nM | COc1cc(C(=O)N[C@@H]2CCNC2)ccc1Nc1ncc2c(n1)N(C1CCCC1)CCC(=O)N2C [Compound 41, (R)-4-(9-cyclopentyl-5-methyl-6-oxo-6,7,8,9-tetrahydro-5H-pyrimido[4,5-b][1,4]diazepin-2-ylamino)-3-methoxy-N-(pyrrolidin-3-yl)benzamide]
3.16 to 10 nM | COc1cc(C(=O)NC2CCOCC2)ccc1Nc1ncc2c(n1)N(C1CCCC1)CCC(=O)N2C [Compound 42, 4-(9-cyclopentyl-5-methyl-6-oxo-6,7,8,9-tetrahydro-5H-pyrimido[4,5-b][1,4]diazepin-2-ylamino)-3-methoxy-N-(tetrahydro-2H-pyran-4-yl)benzamide]
3.16 to 10 nM | COc1cc(C(=O)NC2CN(C)C2)ccc1Nc1ncc2c(n1)N(C1CCCC1)CCC(=O)N2C [Compound 47, 4-(9-cyclopentyl-5-methyl-6-oxo-6,7,8,9-tetrahydro-5H-pyrimido[4,5-b][1,4]diazepin-2-ylamino)-3-methoxy-N-(1-methylazetidin-3-yl)benzamide]
> 10 nM | COc1cc(C(=O)N[C@H]2CCC(=O)NC2)ccc1Nc1ncc2c(n1)N(C1CCCC1)CCC(=O)N2C [Compound 48, (S)-4-(9-cyclopentyl-5-methyl-6-oxo-6,7,8,9-tetrahydro-5H-pyrimido[4,5-b][1,4]diazepin-2-ylamino)-3-methoxy-N-(6-oxopiperidin-3-yl)benzamide]
> 10 nM | COc1cc(C(=O)N[C@@H]2CCCNC2)ccc1Nc1ncc2c(n1)N(C1CCCC1)CCC(=O)N2C [Compound 49, (R)-4-(9-cyclopentyl-5-methyl-6-oxo-6,7,8,9-tetrahydro-5H-pyrimido[4,5-b][1,4]diazepin-2-ylamino)-3-methoxy-N-(piperidin-3-yl)benzamide]
> 10 nM | COc1cc(C(=O)N[C@H]2CCCNC2)ccc1Nc1ncc2c(n1)N(C1CCCC1)CCC(=O)N2C [Compound 50, (S)-4-(9-cyclopentyl-5-methyl-6-oxo-6,7,8,9-tetrahydro-5H-pyrimido[4,5-b][1,4]diazepin-2-ylamino)-3-methoxy-N-(piperidin-3-yl)benzamide]
> 10 nM | COc1cc(C(=O)N[C@@H]2CCN(C)C2)ccc1Nc1ncc2c(n1)N(C1CCCC1)CCC(=O)N2C [Compound 51, (R)-4-(9-cyclopentyl-5-methyl-6-oxo-6,7,8,9-tetrahydro-5H-pyrimido[4,5-b][1,4]diazepin-2-ylamino)-3-methoxy-N-(1-methylpyrrolidin-3-yl)benzamide]
> 10 nM | COc1cc(C(=O)N[C@H]2CCN(C)C2)ccc1Nc1ncc2c(n1)N(C1CCCC1)CCC(=O)N2C [Compound 52, (S)-4-(9-cyclopentyl-5-methyl-6-oxo-6,7,8,9-tetrahydro-5H-pyrimido[4,5-b][1,4]diazepin-2-ylamino)-3-methoxy-N-(1-methylpyrrolidin-3-yl)benzamide]
> 10 nM | COc1cc(C(=O)N[C@@H]2CCCN(C)C2)ccc1Nc1ncc2c(n1)N(C1CCCC1)CCC(=O)N2C [Compound 53, (R)-4-(9-cyclopentyl-5-methyl-6-oxo-6,7,8,9-tetrahydro-5H-pyrimido[4,5-b][1,4]diazepin-2-ylamino)-3-methoxy-N-(1-methylpiperidin-3-yl)benzamide]
3.16 to 10 nM | COc1cc(C(=O)N[C@H]2CCCN(C)C2)ccc1Nc1ncc2c(n1)N(C1CCCC1)CCC(=O)N2C [Compound 54, (S)-4-(9-cyclopentyl-5-methyl-6-oxo-6,7,8,9-tetrahydro-5H-pyrimido[4,5-b][1,4]diazepin-2-ylamino)-3-methoxy-N-(1-methylpiperidin-3-yl)benzamide]
> 10 nM | COc1cc(C(=O)NC2CCNCC2)ccc1Nc1ncc2c(n1)N(C1CCCC1)CCC(=O)N2C [Compound 56, 4-(9-cyclopentyl-5-methyl-6-oxo-6,7,8,9-tetrahydro-5H-pyrimido[4,5-b][1,4]diazepin-2-ylamino)-3-methoxy-N-(piperidin-4-yl)benzamide]
> 10 nM | COc1cc(C(=O)NC[C@H]2CCCN2)ccc1Nc1ncc2c(n1)N(C1CCCC1)CCC(=O)N2C [Compound 62, (R)-4-(9-cyclopentyl-5-methyl-6-oxo-6,7,8,9-tetrahydro-5H-pyrimido[4,5-b][1,4]diazepin-2-ylamino)-3-methoxy-N-(pyrrolidin-2-ylmethyl)benzamide]

The remaining lines, values behind:

Compound | IC50
CNC(=O)c1ccc(Nc2ncc3c(n2)N(C2CCCC2)CCC(=O)N3C)c(OC)c1 [Compound 10, 4-[(9-cyclopentyl-5-methyl-6-oxo-6,7,8,9-tetrahydro-5H-pyrimido[4,5-b][1,4]diazepin-2-yl)amino]-3-methoxy-N-methylbenzamide] | 3.16 to 10 nM
COc1cc(C(=O)NC2CCN(C)CC2)ccc1Nc1ncc2c(n1)N(C1CCCC1)CC1(CC1)C(=O)N2C [Compound 33, 4-(9′-cyclopentyl-5′-methyl-6′-oxo-5′,6′,8′,9′-tetrahydrospiro[cyclopropane-1,7′-pyrimido[4,5-b][1,4]diazepine]-2′-ylamino)-3-methoxy-N-(1-methylpiperidin-4-yl)benzamide] | 1 to 2.51 nM
CC[C@H]1CN(C2CCCC2)c2nc(Nc3ccc(C(=O)NC4CCN(C)CC4)cc3OC)ncc2N(C)C1=O [Compound 36, (S)-4-(9-Cyclopentyl-7-ethyl-5-methyl-6-oxo-6,7,8,9-tetrahydro-5H-pyrimido[4,5-b][1,4]diazepin-2-ylamino)-3-methoxy-N-(1-methyl-piperidin-4-yl)-benzamide] | 3.16 to 10 nM
COc1cc(C(=O)NC2CCN(S(C)(=O)=O)CC2)ccc1Nc1ncc2c(n1)N(C1CCCC1)CCC(=O)N2C [Compound 37, 4-(9-cyclopentyl-5-methyl-6-oxo-6,7,8,9-tetrahydro-5H-pyrimido[4,5-b][1,4]diazepin-2-ylamino)-3-methoxy N-(1-(methylsulfonyl)piperidin-4-yl)benzamide] | 3.16 to 10 nM
COc1cc(C(=O)NCCCN2CCCC2=O)ccc1Nc1ncc2c(n1)N(C1CCCC1)CCC(=O)N2C [Compound 38, 4-(9-cyclopentyl-5-methyl-6-oxo-6,7,8,9-tetrahydro-5H-pyrimido[4,5-b][1,4]diazepin-2-ylamino)-3-methoxy-N-(3-(2-oxopyrrolidin-1-yl)propyl)benzamide] | 3.16 to 10 nM
COc1cc(C(=O)NC2CCN(C(C)=O)CC2)ccc1Nc1ncc2c(n1)N(C1CCCC1)CCC(=O)N2C [Compound 39, N-(1-acetylpiperidin-4-yl)-4-(9-cyclopentyl-5-methyl-6-oxo-6,7,8,9-tetrahydro-5H-pyrimido[4,5-b][1,4]diazepin-2-ylamino)-3-methoxybenzamide] | 1 to 2.51 nM
COc1cc(C(=O)NCCNC(C)=O)ccc1Nc1ncc2c(n1)N(C1CCCC1)CCC(=O)N2C [Compound 43, N-(2-acetamidoethyl)-4-(9-cyclopentyl-5-methyl-6-oxo-6,7,8,9-tetrahydro-5H-pyrimido[4,5-b][1,4]diazepin-2-ylamino)-3-methoxybenzamide] | > 10 nM
COc1cc(C(=O)NCCN2CCCC2=O)ccc1Nc1ncc2c(n1)N(C1CCCC1)CCC(=O)N2C [Compound 46, 4-(9-cyclopentyl-5-methyl-6-oxo-6,7,8,9-tetrahydro-5H-pyrimido[4,5-b][1,4]diazepin-2-ylamino)-3-methoxy-N-(2-(2-oxopyrrolidin-1-yl)ethyl)benzamide] | 3.16 to 10 nM
COc1cc(C(=O)NCCN2CCNCC2)ccc1Nc1ncc2c(n1)N(C1CCCC1)CCC(=O)N2C [Compound 55, 4-(9-cyclopentyl-5-methyl-6-oxo-6,7,8,9-tetrahydro-5H-pyrimido[4,5-b][1,4]diazepin-2-ylamino)-3-methoxy-N-(2-(piperazin-1-yl)ethyl)benzamide] | > 10 nM
COc1cc(C(=O)NCCN2CCCC2)ccc1Nc1ncc2c(n1)N(C1CCCC1)CCC(=O)N2C [Compound 57, 4-(9-cyclopentyl-5-methyl-6-oxo-6,7,8,9-tetrahydro-5H-pyrimido[4,5-b][1,4]diazepin-2-ylamino)-3-methoxy-N-(2-(pyrrolidin-1-yl)ethyl)benzamide] | > 10 nM
CNCCNC(=O)c1ccc(Nc2ncc3c(n2)N(C2CCCC2)CCC(=O)N3C)c(OC)c1 [Compound 59, 4-(9-cyclopentyl-5-methyl-6-oxo-6,7,8,9-tetrahydro-5H-pyrimido[4,5-b][1,4]diazepin-2-ylamino)-3-methoxy-N-(2-(methylamino)ethyl)benzamide] | > 10 nM
COc1cc(C(=O)NCC2CCNCC2)ccc1Nc1ncc2c(n1)N(C1CCCC1)CCC(=O)N2C [Compound 60, 4-(9-cyclopentyl-5-methyl-6-oxo-6,7,8,9-tetrahydro-5H-pyrimido[4,5-b][1,4]diazepin-2-ylamino)-3-methoxy-N-(piperidin-4-ylmethyl)benzamide] | > 10 nM
COc1cc(C(=O)NC[C@@H]2CCCN2)ccc1Nc1ncc2c(n1)N(C1CCCC1)CCC(=O)N2C [Compound 61, (S)-4-(9-cyclopentyl-5-methyl-6-oxo-6,7,8,9-tetrahydro-5H-pyrimido[4,5-b][1,4]diazepin-2-ylamino)-3-methoxy-N-(pyrrolidin-2-ylmethyl)benzamide] | > 10 nM
COc1cc(C(=O)NC[C@@H]2CCCNC2)ccc1Nc1ncc2c(n1)N(C1CCCC1)CCC(=O)N2C [Compound 63, (R)-4-(9-cyclopentyl-5-methyl-6-oxo-6,7,8,9-tetrahydro-5H-pyrimido[4,5-b][1,4]diazepin-2-ylamino)-3-methoxy-N-(piperidin-3-ylmethyl)benzamide] | > 10 nM
